Columns and labels:
Format in all cases: in vivo
[1] = test system: Setaria Italica (Foxtail millet); assay: Leaf penetration and translocation with and without crop oil concentrate adjuvant (COC); settings: for Phloem mobility COC / Xylem mobility COC / Phloem mobility No-COC / Xylem mobility No-COC: 1.5 mM, 3×2 μL droplets on leaf, seven days after treatment; for Phloem mobility COC / Xylem mobility COC: with 1% v/v COC; for Phloem mobility No-COC / Xylem mobility No-COC: without COC; for leaf translocation: compared to compounds 920-4 and 920-6
Experimental: Selected compounds of the invention, along with compounds 920-4 and 920-6 from Japanese Patent Application No. 06321920, were tested for leaf penetration, translocation, and herbicidal activity in a grass weed species when applied with or without an adjuvant to increase the compound cuticle penetration.
Four to five PPO susceptible Setarialtalica (Foxtail millet) seed (Ernst Conservation Seeds, Meadville, PA) were sown in each of the 1.5×1.5-inch 6 cell plug inserts containing Miracle-Gro™ potting mix (Scotts Miracle-Gro Company, Marysville, OH, USA) and grown in a Conviron growth chamber with appropriate growth conditions (temperature of 26/22° C. with photoperiod 16/8 h light day/night and light intensity of 300 μmol m^−2 s^−1 supplemented by LED lamps). Relative humidity in the growth chamber was maintained at around 65%. Plants were grown until 1-2 leaf stage (one expanded leaf and one emerging leaf) and thinned to single plant per cell.
Test compounds were formulated to a final concentration of 1.5 mM in 25% Acetone, 0.1% Tween-20 and 2.5% Ammonium sulphate (AMS) with or without the addition of 1% v/v Crop oil concentrate (COC, Agridex). A total of 6 μL was applied as 3×2 μL droplets on the adaxial surface of an emerged Setaria Italica leaf for each of the two compound solutions (with and without COC). Six replicate plants were treated with each compound. Treatment consisting of the above formulation excluding active compound was applied as a treatment control (TC). Plants were placed back in the growth chamber and, seven days after treatment, were evaluated for overall % visual injury compared to TC. Plants were also evaluated for rapid necrosis representative of PPO inhibition at the site of, acropetal to, and basipetal to the droplet application site to estimate the general, xylem, and phloem compound mobility, respectively. In general, compounds with necrosis only at the site of action were considered to be poorly mobile whereas necrosis in the emerging leaf indicates symplastic phloem movement and necrosis from leaf base to tip only on the applied leaf indicates apoplastic xylem movement.
The data are presented in Table 4 are relative to the TC treatment for which the plant and leaf injury percent is consider 0%. “A” represents a percentage leaf or plant injury between 80 and 100%; “B” represents a percentage leaf or plant injury of 20-80%; “C” represents a percentage control below 20%.

[2] = test system: Amaranthus retroflexus (AMARE); assay: Post-emergence herbicidal activity, spray at 100 ppm; settings: % visual injury compared to treatment control 7 days after treatment
Experimental: (§1) Selected compounds of the invention were screened at 100 ppm concentration against Amaranthus retroflexus (AMARE), Setaria italica (SETIT), and Kochia/Bassia scoparia (KCHSC).
(§2) Accordingly, PPO susceptible weed seeds were sown in 5″×5″ pots by quadrant containing Miracle-Gro potting mix (Scotts Miracle-Gro Company, Marysville, OH, USA) and grown in a Conviron growth chamber with appropriate growth conditions (temperature of 26/22° C. with photoperiod 16/8 h light day/night and light intensity of 300 μmol m^−2 s^−1 supplemented by LED lamps). Relative humidity in the growth chamber was maintained at around 65%. Plants were grown until 2-4 leaf stage and thinned to 5-8 plants per quadrant per species.
(§3) Compounds were formulated in 25% Acetone, 1% Crop oil concentrate (COC-Agridex), 0.1% Tween-20, and 2.5% Ammonium sulphate (AMS). Three replicate pots were treated with each compound. Treatment consisting of the above formulation excluding active compound was applied as a treatment control (TC). Plants were treated with the test compound solution in a laboratory spray chamber fitted with 8003 flat fan nozzles calibrated to deliver 187-200 L ha^−1 at 269 kPa. Plants were placed back in the growth chamber and evaluated for % visual injury compared to TC 7 days after treatment (DAT). The data presented in Table 3 in which A represents a percentage control, where 100% control indicates complete inhibition of weed growth.

[3] = test system: Setaria italica (SETIT); assay: as above; settings: % visual injury compared to treatment control 7 days after treatment
Experimental: as §1, §2, §3

[4] = test system: Kochia/Bassia scoparia (KCHSC); assay: as above; settings: % visual injury compared to treatment control 7 days after treatment
Experimental: as §1, §2, §3

[5] = test system: Amaranthus retroflexus (AMARE), Setaria italica (SETIT), and Kochia/Bassia scoparia (KCHSC); assay: Post-emergence herbicidal activity against weed species, overall statement; settings: concentration of 100 parts per million (PPM)
Experimental: as §1, §2, §3

SMILES | Phloem mobility COC [1] | Xylem mobility COC [1] | Phloem mobility No-COC [1] | Xylem mobility No-COC [1] | Post-emergence % control (100 PPM) AMARE [2] | Post-emergence % control (100 PPM) SETIT [3] | Post-emergence % control (100 PPM) KCHSC [4] | leaf translocation [1] | herbicidal activity against weed species [5]
C#CCN1C(=O)COc2cc(F)c(-c3c(Cl)cc(C(F)(F)F)cc3Cl)cc21 [Compound 920-4, reference compound] | A (“A” represents a percentage leaf or plant injury between 80 and 100%) | A (“A” represents a percentage leaf or plant injury between 80 and 100%) | C (“C” represents a percentage control below 20%) | C (“C” represents a percentage control below 20%) | 89% | 38% | 52% | – | –
C#CCN1C(=O)COc2cc(F)c(-c3c(F)cc(F)c(F)c3F)cc21 [Compound 52, 7-fluoro-4-(prop-2-yn-1-yl)-6-(2,3,4,6-tetrafluorophenyl)-2H-benzo[b][1,4]oxazin-3(4H)-one] | A (“A” represents a percentage leaf or plant injury between 80 and 100%) | A (“A” represents a percentage leaf or plant injury between 80 and 100%) | A (“A” represents a percentage leaf or plant injury between 80 and 100%) | A (“A” represents a percentage leaf or plant injury between 80 and 100%) | 100% | 72% | 93% | significant improved leaf translocation | excellent herbicidal activity
C#CCN1C(=O)C(F)(F)Oc2cc(F)c(-c3c(F)c(F)c(F)c(F)c3F)cc21 [Compound 2, 2,2,7-trifluoro-6-(perfluorophenyl)-4-(prop-2-yn-1-yl)-2H-benzo[b][1,4]oxazin-3(4H)-one] | A (“A” represents a percentage leaf or plant injury between 80 and 100%) | A (“A” represents a percentage leaf or plant injury between 80 and 100%) | A (“A” represents a percentage leaf or plant injury between 80 and 100%) | A (“A” represents a percentage leaf or plant injury between 80 and 100%) | 98% | 58% | 75% | significant improved leaf translocation | excellent herbicidal activity
C#CCN1C(=O)COc2cc(F)c(-c3ccc(Cl)c(Cl)c3Cl)cc21 [Compound 920-6, reference compound] | A (“A” represents a percentage leaf or plant injury between 80 and 100%) | A (“A” represents a percentage leaf or plant injury between 80 and 100%) | C (“C” represents a percentage control below 20%) | C (“C” represents a percentage control below 20%) | 85% | 18% | 21% | – | –
C#CCN1C(=O)C(F)(F)Oc2cc(F)c(-c3c(F)cc(F)c(F)c3F)cc21 [Compound 37, 2,2,7-trifluoro-4-(prop-2-yn-1-yl)-6-(2,3,4,6-tetrafluorophenyl)-2H-benzo[b][1,4]oxazin-3(4H)-one] | A (“A” represents a percentage leaf or plant injury between 80 and 100%) | A (“A” represents a percentage leaf or plant injury between 80 and 100%) | A (“A” represents a percentage leaf or plant injury between 80 and 100%) | A (“A” represents a percentage leaf or plant injury between 80 and 100%) | 100% | 58% | 92% | significant improved leaf translocation | excellent herbicidal activity

Source: US12637438B2, “Protoporphyrinogen oxidase inhibitors” (Enko Chem, Inc., priority 2021, dated 2026)
